Experimental data from US20250108088A1, “REGENERATIVE PEPTIDES AND METHODS FOR USE THEREOF” (priority 2023, published 2025).

How the values were obtained:
Assay type in all cases: cell-based
[1] = system: Acinetobacter baumannii ATCC 196062; test: Diffusion agar plate method, zone of inhibition; conditions: 62.5 μg/ml to 1000 μg/ml; FIG. 5, FIG. 10
Method: (§1) Cell culture: Cultures of each bacterial strain were prepared by inoculating on Muller Hinton Agar (MHA) medium. After overnight incubation at 37° C., the density of the bacterial cells was compared to the McFarland turbidity standard (0.5).
(§2) Plates were swabbed with McFarland 0.5 inoculum of each test bacteria. […] serial dilutions of the peptides were prepared and 20 μl of compound were dropped onto the MHA. Antibiotic disc served as a positive control and vehicle alone served as the negative control. Plates were incubated for 16-18 hours and assessed for antibacterial activity. Zones of inhibition were measured for each TA dilution and compared with the controls.

[2] = system: Streptococcus pneumoniae DCC1335; test: Diffusion agar plate method, zone of inhibition; conditions: 62.5 μg/ml to 1000 μg/ml; FIG. 10
Method: as §1, §2

[3] = system: Acinetobacter baumannii ATCC 196062; test: Broth microdilution method (MIC50/MIC90)
Method: as §1
(§3) Ten-fold serial dilution of the peptide along with controls were prepared in Mueller Hinton Broth (MHB) media in a total volume of 50 μl in 96 well plates. Additionally, 50 μl of the diluted standard inoculum (1:150 in MHB media) were added to each of the well plates. The plates were read at OD600 nm. MIC50 and MIC90 curves were calculated from the plate readout. Each sample was run in duplicate.

[4] = system: Normal human dermal fibroblasts (HNDF); test: Myofibroblast transition assay (MFT), aSMA immunofluorescence; conditions: N = 3; for Myofibroblast transition (MFT), aSMA/cell, % change relative to control: TGF-Beta induced HNDF, control of no peptide
How it was run: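 HNDFs serum-starved (1% FBS) 4 h, then stimulated with 20 ng/ml TGF-beta plus peptide at various concentrations for 5 days. Fixed cells immunostained for aSMA with DAPI counterstain, imaged by cytometer; aSMA/DAPI ratio gives aSMA per cell, normalized to no-peptide control.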

[5] = system: interleukin-8 (IL-8) production in human fibroblasts; test: Fibroblast inflammation assay (LPS-induced IL-8, ELISA); conditions: N = 3, 5 μg/mL LPS, 24 hours
Method: Inflammation in fibroblasts leads to the production of the chemokine interleukin-8 (IL-8), which stimulates fibroblast to myofibroblast transition (MFT) thereby enhancing scar formation. To determine if the peptides of the instant disclosure affect fibroblast response to inflammation and fibroblast IL-8 production, the following assays were performed.
Human fibroblasts were grown as described above. HNDFs were plated in 96 well plates at a concentration of 1×10^4 cells/well and allowed to incubate overnight. The next day cells were dosed with 5 μg/mL of LPS with and without the peptides. The negative control contained only media and vehicle, while the positive control was dosed with lipopolysaccharides (LPS) and dexamethasone (50 μg/ml). After 24 hours, the media was removed to measure IL6 and IL8 cytokine levels using ELISA. A standard curve was plotted in excel. All data were blank subtracted and then fit onto the curve to calculate cytokine concentrations.

[6] = system: Staphylococcus aureus, Streptococcus pneumoniae, Klebsiella pneumoniae, Pseudomonas aeruginosa, Acinetobacter baumannii; test: Antimicrobial assays, growth of bacterial strains
Method: Infection is another perturbation that causes fibrosis and may delay or inhibit wound healing. To determine if the peptides of the instant disclosure affect the growth of bacteria, and thus may be appropriate as antimicrobial peptides to be used in anti-fibrotic treatments, growth of the following bacterial strains was tested with the exemplary peptides: Staphylococcus aureus: USA300, ST80, JE2, and MRSA col; Streptococcus pneumoniae: DCC1335 and D39; Klebsiella pneumoniae; Pseudomonas aeruginosa; and Acinetobacter baumannii. […] Thus, in some embodiments, the peptides of the instant disclosure may bacterial growth, by a least 20%, at least 30%, at least 40%, at least 50%, at least 60%, at least 70%, or at least 80% relative to the control.
To determine which peptides may be used to inhibit the growth of bacteria in tissue, the minimum inhibitory and bactericidal concentrations of exemplary peptides against both Gram-positive and Gram-negative bacteria were assessed. […]
The antimicrobial effects of the exemplary peptides were assessed in the following bacterial strains: Staphylococcus aureus: USA300, ST80, JE2, and MRSA col; Streptococcus pneumoniae: DCC1335 and D39; Klebsiella pneumoniae ATCC 10031; Pseudomonas aeruginosa ATCC 27853; and Acinetobacter baumannii ATCC 196062. […]

[7] = system: Pseudomonas aeruginosa ATCC 27853; test: Diffusion agar plate method, zone of inhibition; conditions: 62.5 μg/ml to 1000 μg/ml; FIG. 5
Method: as §1, §2

[8] = system: Staphylococcus aureus USA300 (NRS384), ST80, JE2, MRSA col; test: Diffusion agar plate method, zone of inhibition; conditions: 62.5 μg/ml to 1000 μg/ml; FIG. 5
Method: as §1, §2

[9] = system: Klebsiella pneumoniae ATCC 10031; test: Broth microdilution method (MIC50/MIC90)
Method: as §1, §3

[10] = system: Pseudomonas aeruginosa ATCC 27853; test: Broth microdilution method (MIC50/MIC90)
Method: as §1, §3

[11] = system: Staphylococcus aureus strains, including the MRSA col strain; test: Broth microdilution method (MIC50/MIC90)
Method: as §1, §3

[12] = system: Acinetobacter baumannii ATCC 196062; test: Minimum bactericidal concentration (MBC); conditions: agar plates; FIG. 9
Method: (§4) The minimum bactericidal concentration (MBC) test determines the lowest concentration at which an antimicrobial agent will kill a particular microorganism. The MBC is determined using a series of steps, undertaken after a Minimum Inhibitory Concentration (MIC) test has been completed. o determine the MBC, the dilution representing the MIC and at least two of the more concentrated test product dilutions are plated and enumerated to determine viable CFU/ml. The […] of the peptides was determined as the lowest concentration in which colony forming units (CFU) values were <5 colonies/10 μl of culture.

[13] = system: Klebsiella pneumoniae ATCC 10031; test: Minimum bactericidal concentration (MBC); conditions: agar plates; FIG. 9
Method: as §4

[14] = system: Staphylococcus aureus ST80; test: Minimum bactericidal concentration (MBC); conditions: agar plates; FIG. 9
Method: as §4

Sequence: SLSRTLWAWLPRPCKSN [MBdol20]
- agar zone of inhibition, inhibiting bacterial growth [1]: effective
- agar zone of inhibition, inhibiting bacterial growth [2]: effective
- MIC50 and MIC90, inhibiting bacterial growth in broth ([3]; FIG. 11): most effective

Sequence: FAYCRSKGLRKRLRKFRNK [MBb32]
- Myofibroblast transition (MFT), aSMA/cell, % change relative to control ([4]; 100 ng/ml peptide): −0.2592%
- Myofibroblast transition (MFT), aSMA/cell, % change relative to control ([4]; 1000 ng/ml peptide): −0.3087%
- MFT, Representative value from experiments (% change relative to control) ([4]; most effective significant concentration of 10, 100, 1000 ng/ml): −0.3087 p = (0.039) %
- Fibroblast induced chemokine production (IL-8) induced by LPS (% change relative to control) ([5]; 100 ug/ml peptide): 4% (p = .054)
- Fibroblast induced chemokine production (IL-8) induced by LPS (% change relative to control) ([5]; 1000 ug/ml peptide): 29% (p = 0.035)
- inhibition of bacterial growth among those peptides tested [6]: strongest effect
- agar zone of inhibition, inhibiting bacterial growth [1]: effective
- agar zone of inhibition, inhibiting bacterial growth [7]: effective
- agar zone of inhibition, inhibiting bacterial growth [8]: effective
- MIC50, growth inhibition of bacteria in broth [3]: lowest MIC50
- MIC50, growth inhibition of bacteria in broth [9]: low MIC50
- MIC50, growth inhibition of bacteria in broth [10]: low MIC50
- MIC50, growth inhibition of bacteria in broth [11]: low MIC50
- minimum bactericidal concentration (MBC), bactericidal effect [12]: bactericidal effect
- minimum bactericidal concentration (MBC), bactericidal effect [13]: bactericidal effect
- minimum bactericidal concentration (MBC), bactericidal effect [14]: bactericidal effect
